The assay in a line: Inhibition of [3H]pentazocine binding to Sigma opioid receptor type 1.
Take `CC1(C)C2CC[C@]1(C)CN(CCC1CCCCCCC1)C2` [(S)-3-(2-Cyclooctyl-ethyl)-1,8,8-trimethyl-3-aza-bicyclo[3.2.1]octane]: the Ki is 2.9 nM.
For `CC1(C)C2CC[C@]1(C)CN(CCCCC1CCCCC1)C2` [(S)-3-(4-Cyclohexyl-butyl)-1,8,8-trimethyl-3-aza-bicyclo[3.2.1]octane] the value was 1.2 nM; for `C=CCN1CC[C@@]2(C)c3cc(O)ccc3C[C@H]1[C@H]2C` [(1S,9S,13S)-10-allyl-1,13-dimethyl-10-azatricyclo[7.3.1.0~2,7~]trideca-2,4,6-trien-4-ol], 157 nM.
To `CC1(C)C2CC[C@]1(C)CN(CCC1C3CC4CC(C3)CC1C4)C2` (stereo partly drawn) [(S)-3-(2-Adamantan-2-yl-ethyl)-1,8,8-trimethyl-3-aza-bicyclo[3.2.1]octane] belongs 4.3 nM; to `CC1(C)C2CC[C@]1(C)CN(CCC1CCCCC1)C2` [(S)-3-(2-Cyclohexyl-ethyl)-1,8,8-trimethyl-3-aza-bicyclo[3.2.1]octane], 2.2 nM.
To `CC1(C)C2CC[C@@]1(C)CN(CC1CCCCC1)C2` [(R)-3-Cyclohexylmethyl-1,8,8-trimethyl-3-aza-bicyclo[3.2.1]octane] belongs 1.1 nM; to `CC1(C)C2CC[C@]1(C)CN(CCC1CCCC1)C2` [(S)-3-(2-Cyclopentyl-ethyl)-1,8,8-trimethyl-3-aza-bicyclo[3.2.1]octane], 1.7 nM; to `CC1(C)C2CC[C@]1(C)CN(CCC1CCCCCC1)C2` [(S)-3-(2-Cycloheptyl-ethyl)-1,8,8-trimethyl-3-aza-bicyclo[3.2.1]octane], 2.9 nM.
The molecule `CC1(C)C2CC[C@@]1(C)CN(CCC1CCCCC1)C2` [(R)-3-(2-Cyclohexyl-ethyl)-1,8,8-trimethyl-3-aza-bicyclo[3.2.1]octane] gave a Ki of 1.4 nM.
To `CC1(C)C2CC[C@]1(C)CN(CCCC1CCCCC1)C2` [(S)-3-(3-Cyclohexyl-propyl)-1,8,8-trimethyl-3-aza-bicyclo[3.2.1]octane] belongs 2.5 nM; to `CC1(C)C2CC[C@]1(C)CN(CC1CCCCC1)C2` [(S)-3-Cyclohexylmethyl-1,8,8-trimethyl-3-aza-bicyclo[3.2.1]octane], 1.3 nM.
For `CC1(C)C2CC[C@]1(C)CN(C1CCCCC1)C2` [(S)-3-Cyclohexyl-1,8,8-trimethyl-3-aza-bicyclo[3.2.1]octane] the value was 3 nM.

The values are drawn from BindingDB's records for doi:10.1016/S0960-894X(97)00417-4 (1997).
